Assay results: US11286236B2, “Compound, agent and composition for the suppression of cancer growth” (Vector Vitale IP LLC, priority 2018, dated 2022)
Structures can show the parent of a compound that is named as a salt.

Tested on: Ehrlich ascites carcinoma
Experiment: In vivo antitumor activity against Ehrlich ascites carcinoma
Design: species or system mouse
Protocol: Outbred mice were administered Ehrlich ascites carcinoma cells (EAC) intraperitoneally (IP) at a dose of 2.5×10^5 cells in 0.25 ml of normal saline solution. The compounds under study, 1)^85RbeE2, was dissolved in deuterium-depleted water and 2) Cisplatin (Teva, the Netherlands), was dissolved in normal saline solution. The drugs were administered starting from the first day after mice were inoculated with tumor cells, using a microinjection syringe, at the following doses: 1)^85Rbe-E2 at a dose of 750 μg/mouse (weighing 20 g) in a volume of 0.3 ml as 3 IP injections (1 injection—250 μg/mouse) on the 1st, 4th and 7th day of the experiment; 2) Cisplatin at a dose of 4.5 mg/kg or 1.5 mg/kg as 3 IP injections on the 2nd, 5th and 8th day of the experiment. The dynamics of tumor growth in the experimental animals was observed (based on the volume of ascites in the peritoneal cavity) after the tumor cell inoculation and for 31 days of the experiment. On the 15th and 22nd day after IP administration of tumor cells, all the fluid accumulated in each animal's abdomen was extracted and the total number of live/dead cells in each mouse was determined. In addition, some mice were used to assess a survival rate of animals in the experiment.
Laboratory animals. 84 outbred female 10 to 12-week old mice weighing 22-26 g were used in the experimental study. The animals were obtained from the animal vivarium at R.E. Kavetsky IEPOR NASU. […] The animals were maintained in plastic cages, under natural light-dark cycles, fed standard food and allowed free access to food and tap water.
Tumor model. Ascites strain of Ehrlich ascites carcinoma maintained on outbred mice obtained from the cell and tissue line bank at R.E. Kavetsky IEPOR NASU was used in the experiment. To prepare the strain for injection, tumor cells derived from ascitic fluid were placed in normal saline solution and cellularity of the suspension was assessed in a hemocytometer and adjusted to a concentration of 1·10^6 cells/ml with saline solution. The tumor cells were inoculated by injecting 250 mcl of cell suspension from the tumor (0.25×10^6 cells/mouse) into the peritoneal cavity of laboratory animals.
The drugs were administered IP every other day, using a microinjection syringe, at doses specified above as a series of 3 injections of each compound according to the following scheme: ^85Rbe-E2 at a dose of 250 μg/mouse weighing 20 g+CP at a dose of […] 24 hours later (for groups (EAC+CP(4.5)) and (EAC+^85Rbe-E2+CP(4.5)) or […] (for groups (EAC+CP(1.5)) and (EAC+^85Rbe-E2+CP(1.5)) in a volume of 0.25 ml of saline solution (6 injections in total during 8 days).
The tumor growth dynamics in the laboratory animals was observed by daily control of the volume of ascitic fluid in the abdominal cavity of mice starting from the tumor inoculation and for 31 days of the experiment. The dynamics of ascites growth both in control and experimental groups was assessed visually using a 10-point scale, where 0 points were the absence of tumor growth and 10 points were the maximum increase in the size of the abdomen of the mouse with ascites (one point was 0.6 cm of the mean diameter of the mouse abdomen filled with the fluid).
Furthermore, on the 15th and 22nd day after intraperitoneal injection of tumor cells, all ascitic fluid was removed from the abdomen in 2 or 3 animals from each group by washing their peritoneal cavity with saline solution, and live/dead EAC cells were counted in each mouse using the traditional vital dye trypan blue (HyClon, USA) and a hemocytometer.
X=((a)/80)×10^6, where X is the number of cells in 1 ml and a is the number of cells counted in 5 large diagonal squares of the hemocytometer.
7 or 8 mice from each group were used to assess their survival in the experiment. The total lifespan observation time was 31 days from the moment of inoculation of tumor cells.
Statistical data processing. […]

[1] = 85Rbe-E2 750 μg/mouse IP total, alone, 14 mice per group
[2] = Day 15, 85Rbe-E2 750 μg/mouse IP total, alone
[3] = Day 22, 85Rbe-E2 750 μg/mouse IP total, alone
[4] = day 15, 85Rbe-E2 750 μg/mouse IP total, alone
[5] = day 17, 85Rbe-E2 750 μg/mouse IP total, alone
[6] = day 22, 85Rbe-E2 750 μg/mouse IP total, alone
[7] = day 24, 85Rbe-E2 750 μg/mouse IP total, alone
[8] = day 27, 85Rbe-E2 750 μg/mouse IP total, alone
[9] = day 29, 85Rbe-E2 750 μg/mouse IP total, alone
[10] = day 31, 85Rbe-E2 750 μg/mouse IP total, alone

In the case of Cc1ccc(S(=O)(=O)Nc2ccccc2NC(=O)c2ccccc2)cc1 [^85Rbe − E2, ^85Rb-enriched rubidium salt of N-benzoyl-N′-(4-toluenesulfonyl)-o-phenylenediamine], the “Animals without tumor, %” value (85Rbe-E2 750 μg/mouse IP total, alone) is reported as 0%, the “Number of animals in the group with tumor” value [1] is reported as 14 and the “Number of animals in the group without tumor” value [1] is reported as 0. For the same molecule, the “Last day with statistically significant inhibition of EAC growth vs control” value (85Rbe-E2 alone) was 15 days, the “Suppression of carcinoma growth vs control, average” value (85Rbe-E2 alone, by the 15th day after inoculation) was 18% and the “Number of dead cells/mouse, %” value [2] was 4.3 ± 1.5%. The “Number of live cells/mouse, ×10^6 (M ± m)” value [2] was 1917 ± 408 ×10^6, the “Volume of ascites” value [2] was 6.5 ± 2.9 mL and the “Number of dead cells/mouse, %” value [3] was 15.4 ± 3.6%. The “Number of live cells/mouse, ×10^6 (M ± m)” value [3] was 2062 ± 438 ×10^6, the “Volume of ascites” value [3] was 16.4 ± 4.8 mL and the “Survival, percent of mice” value (day 0, 85Rbe-E2 750 μg/mouse IP total, alone) was 100%. The “Size of mouse abdomen, points” value (day 9, 85Rbe-E2 750 μg/mouse IP total, alone) was 4.4 ± 0.2 points, the “Size of mouse abdomen, points” value (day 13, 85Rbe-E2 750 μg/mouse IP total, alone) was 6 ± 0.3 points and the “Size of mouse abdomen, points” value [4] was 6.5 ± 0.3 points. For the same molecule, the “Survival, percent of mice” value [4] was 100%, the “Size of mouse abdomen, points” value [5] was 8 ± 0.6 points and the “Survival, percent of mice” value [5] was 85.7%. The “Survival, percent of mice” value (day 19, 85Rbe-E2 750 μg/mouse IP total, alone) was 85.7%, the “Size of mouse abdomen, points” value (day 20, 85Rbe-E2 750 μg/mouse IP total, alone) was 9 ± 0.4 points and the “Size of mouse abdomen, points” value [6] was 9.5 ± 0.4 points. For the same molecule, the “Survival, percent of mice” value [6] was 85.7%, the “Size of mouse abdomen, points” value [7] was 10 points and the “Survival, percent of mice” value [7] was 85.7%. The “Survival, percent of mice” value (day 25, 85Rbe-E2 750 μg/mouse IP total, alone) was 71%, the “Survival, percent of mice” value (day 26, 85Rbe-E2 750 μg/mouse IP total, alone) was 71% and the “Size of mouse abdomen, points” value [8] was 10 points. The “Survival, percent of mice” value [8] was 57%, the “Survival, percent of mice” value (day 28, 85Rbe-E2 750 μg/mouse IP total, alone) was 43% and the “Size of mouse abdomen, points” value [9] was 10 points. For the same molecule, the “Survival, percent of mice” value [9] was 29%, the “Size of mouse abdomen, points” value [10] was 10 points and the “Survival, percent of mice” value [10] was 14%. The “Effect on the survival rate of mice” value (series of IP injections of 85Rbe-E2 alone) was “did not have a significant effect”.
